# Source: patent EP0322748B1, “Antibiotic NK86-0279, process for production of the same and application of the same” (NIPPON KAYAKU KABUSHIKI KAISHA, priority 1987, dated 1989)
# Assays:
# [1] = test system: mouse breast cancer (Ehrlich B); assay: anti-cancer action against grafted mouse breast cancer, tumor volume; format: in vivo
# Description: (§1) The anti-cancer action of the compound of the present invention against mouse lung cancer (lewis lung carcinoma) and mouse breast cancer (Ehrlich B) was examined. 1 x 10⁶ mouse lung cancer cells or mouse breast cancer cells were grafted into a subcutaneous portion of the groin of an eight week-old male BDF₁ or ICR mouse, and the compound of the present invention was intraperitoneally administered to the mouse in various concentrations every day from two days after the graft once a day for 9 days. On the second day after completion of the administration, the minor axis and the major axis of the tumor were measured, and the volume of the tumor was determined by using the following equation: (minor axis)² x […]/2 [formula] . Then, the percentage inhibition of proliferation of each tumor with respect to the compound of the present invention was determined from the ratio of the volume of the tumor on the groups of administration of the compound of the present invention relative to that on the control group.
# solubility = format: physicochemical
# [2] = test system: mouse melanoma cells (B16); assay: growth-inhibitory effect on mouse melanoma cells, dye exclusion method; format: cell-based
# Description: The growth-inhibitory effects of the compound of the present invention on mouse melanoma cells (B16) and human melanoma cells (A375) were examined. A 96-well plate was inoculated with mouse melanoma cells at a ratio of 1.5 x 10³ cells per well, while another 96-well plate was inoculated with human melanoma cells at a ratio of 1.0 x 10³ per well. These cells were incubated in an incubator at 37°C under 5 % CO₂. Then the compound of the present invention was added thereto at various concentrations. Cells in each well were counted by the dye exclusion method 65 hours after the addition to thereby evaluate the growth-inhibitory effect of the test compound on the mouse melanoma cells and that on the human melanoma cells.
# [3] = test system: cancer of the mouse colon (colon 26); assay: anti-cancer action against grafted mouse colon cancer, prolongation of life; format: in vivo, BALB/c mouse
# Description: The anti-cancer action of the compound of the present invention against the cancer of the mouse colon (colon 26) was examined. A cancer debris of mouse colon having an area of 2 mm³ was grafted into a subcutaneous portion of the left body side of a 6 week-old male BALB/c mouse, and the compound of the present invention was intraperitoneally administered to the mouse in various concentrations every day from the next day of the graft once a day for 9 days. The general conditions of the mouse were observed every day after the initiation of the administration. The percentage prolongation of life (T/C) of the mouse with respect to the compound of the present invention was determined from the ratio of the average survival time on the groups of administration of the compound of the present invention relative to that on the control group.
# [4] = test system: two-spotted spider mite acarids (a Kelthane-resistant species); assay: insecticidal action, mortality rate of spider mites; format: in vivo; details: Tetranychus urticae, 48 h, Imagos of two-spotted spider mite, after 2 days
# Description: The insecticidal action of the compound of the present invention was examined by the following method. • (1) An imago of two-spotted spider mite acarids (a Kelthane-resistant species) was used as a test vermin, and the mortality rate thereof was assayed according to an ordinary method (described on page 327 of "Noyaku Seibutsu Kenteiho" edited by Toyoji Hosotsuji). Specifically, a solution of the compound of the present invention in acetone (0.1 %) was added to 0.5 ml of an aqueous sucrose solution (1 %) to have a predetermined concentration. Ten two-spotted spider mite acarids were released in a vessel (200-ml beaker), and the vessel was covered with a paraffin film. The agent solution prepared above was put on the paraffin film, and another praffin film was put thereon. The beaker was allowed to stand in a thermostatic chamber (20 ± 1°C) for a predetermined period of time, and the life and death of the test vermin was investigated. • (2) A larva of mosquito culices (a sensitive species) was used as a test vermin, and the mortality rate thereof was assayed according to an ordinary method (described on page 109 of "Noyaku Jikkenho I, Sacchuzaihen" published by Soft Science, Inc.). Specifically, 10 ml of well water was placed in a vessel (15-ml Schale), and 5 larvae of mosquito culices (the third stage) were released in the vessel. A solution of the compound of the present invention in acetone (0.1 %) was added thereto so as to have a predetermined concentration. The vessel was allowed to stand in a thermostatic chamber (26 ± 1°C) for a predetermined period of time, and the life and death of the test vermin was investigated.
# [5] = test system: mouse lung cancer (lewis lung carcinoma); assay: anti-cancer action against grafted mouse lung cancer, tumor volume; format: in vivo; details: mouse pulmonary cancer
# Description: as §1
# Candida albicans = assay: antifungal spectrum (minimum inhibitory concentration on agar); format: cell-based; details: Czapek Dox solution agar
# Description: (§2) The antifungal spectrum of the compound of the present invention was examined.
# Mucor javanicus = assay: as above; format: cell-based; details: Czapek Dox solution agar
# Description: as §2
# Torula herbarum = assay: as above; format: cell-based; details: Czapek Dox solution agar
# Description: as §2
# Fusarium roseum f. sp. = assay: as above; format: cell-based; details: Fusarium sambucinum; Czapek Dox solution agar
# Description: as §2
# Glomerella cingulata = assay: as above; format: cell-based; details: Colletotrichum gloeosporioides; Czapek Dox solution agar
# Description: as §2
# Saccharomyces cerevisiae = assay: as above; format: cell-based; details: Czapek Dox solution agar
# Description: as §2
# Aspergillus oryzae = assay: as above; format: cell-based; details: Czapek Dox solution agar
# Description: as §2
# [6] = test system: Sporobolomyces salmonicolor; assay: as above; format: cell-based; details: Czapek Dox solution agar
# Description: as §2
# Aspergillus niger = assay: as above; format: cell-based; details: Czapek Dox solution agar
# Description: as §2
# Botrytis cinerea = assay: as above; format: cell-based; details: potato sucrose agar medium was used
# Description: as §2
# Penicillium chrysogenum = assay: as above; format: cell-based; details: Czapek Dox solution agar
# Description: as §2
# Rhizopus hangchao = assay: as above; format: cell-based; details: Czapek Dox solution agar
# Description: as §2
# [7] = 0.063 mg/kg intraperitoneally once a day for 9 days
# [8] = 0.125 mg/kg intraperitoneally once a day for 9 days
# [9] = 0.500 mg/kg intraperitoneally once a day for 9 days
# [10] = 0.250 mg/kg intraperitoneally once a day for 9 days
smiles,measurement,setting,value
CCC1C=CC=CCC(C)C(O)C(C)(O)C(=O)C(C)C(O)C(C)C(=O)C(C)C(O)C(C)C=CC(=O)OC2C(C)C(CC1)OC1(OC(CC(C)O)C(C)CC1=O)C2CC (centres unmarked) [NK86-0279],Growth-inhibitory ratio (tumor volume),[1]; 0.032 mg/kg intraperitoneally once a day for 9 days,22.5%
same,Growth-inhibitory ratio (tumor volume),[1]; [7],-0.4%
same,Growth-inhibitory ratio (tumor volume),[1]; [8],44.3%
same,Growth-inhibitory ratio (tumor volume),"[1]; 0.250 mg/kg intraperitoneally once a day for 9 days, 0.25 mg/kg",67%
same,Growth-inhibitory ratio (tumor volume),[1]; [9],61.7%
same,solubility,solubility; in hexane,hardly soluble
same,solubility,"solubility; in methanol, acetone, ethyl acetate and dimethyl sulfoxide",soluble
same,solubility,"solubility; in organic solvents such as methanol, acetone, ethyl acetate and ethanol",soluble
same,solubility,solubility; in water,hardly soluble
same,inhibition at 0.0061 µg/mL,"[2]; Mus musculus, 65 h, B16, 0.0061 µg/ml, read-out: Growth-inhibitory ratio",5.3%
same,inhibition at 0.024 µg/mL,"[2]; Mus musculus, 65 h, B16, 0.024 µg/ml, read-out: Growth-inhibitory ratio",36.8%
same,inhibition at 0.098 µg/mL,"[2]; Mus musculus, 65 h, B16, 0.098 µg/ml, read-out: Growth-inhibitory ratio",43.1%
same,inhibition at 0.39 µg/mL,"[2]; Mus musculus, 65 h, B16, 0.39 µg/ml, read-out: Growth-inhibitory ratio",45.3%
same,inhibition at 1.56 µg/mL,"[2]; Mus musculus, 65 h, B16, 1.56 µg/ml, read-out: Growth-inhibitory ratio",48.9%
same,inhibition at 6.25 µg/mL,"[2]; Mus musculus, 65 h, B16, 6.25 µg/ml, read-out: Growth-inhibitory ratio",89.7%
same,inhibition at 25 µg/mL,"[2]; Mus musculus, 65 h, B16, 25 µg/ml, read-out: Growth-inhibitory ratio",105%
same,inhibition at 100 µg/mL,"[2]; Mus musculus, 65 h, B16, 100 µg/ml, read-out: Growth-inhibitory ratio",105%
same,IC50,"[2]; mouse melanoma cells (B16), 65 hours after the addition, read-out: IC₅₀",1.62 µg/mL
same,T/C (percentage prolongation of life),[3]; [7],136%
same,T/C (percentage prolongation of life),[3]; [8],130%
same,T/C (percentage prolongation of life),[3]; [10],153%
same,T/C (percentage prolongation of life),[3]; [9],143%
same,mortality at 1 ppm,[4]; 1 ppm,100%
same,mortality at 10 ppm,[4]; 10 ppm,100%
same,mortality at 100 ppm,[4]; 100 ppm,100%
same,Growth-inhibitory ratio (tumor volume),[5]; [7],46.3%
same,Growth-inhibitory ratio (tumor volume),[5]; [8],57.1%
same,Growth-inhibitory ratio (tumor volume),[5]; [10],8.9%
same,Growth-inhibitory ratio (tumor volume),[5]; [9],59.6%
same,MIC,Candida albicans,> 100 µg/mL
same,MIC,Mucor javanicus,> 100 µg/mL
same,MIC,Torula herbarum,3.13 µg/mL
same,MIC,Fusarium roseum f. sp.,6.25 µg/mL
same,MIC,Glomerella cingulata,6.25 µg/mL
same,MIC,Saccharomyces cerevisiae,> 100 µg/mL
same,MIC,Aspergillus oryzae,3.13 µg/mL
same,MIC,[6],6.25 µg/mL
same,MIC,Aspergillus niger,6.25 µg/mL
same,MIC,Botrytis cinerea,12.5 µg/mL
same,MIC,Penicillium chrysogenum,1.56 µg/mL
same,MIC,Rhizopus hangchao,6.25 µg/mL
